Data published in patent US11566057B2, “Long-acting co-agonists of the glucagon and GLP-1 receptors” (Merck Sharp & Dohme Corp., priority 2017, dated 2023).
Like-named read-outs stand apart in the source and are kept apart here. Numbered stars: 1 amine (or outer) side, 2 acyl side, 3 side chain; on linkers, the order of the positions; unused ones are H or OH. Square brackets hold non-standard residues; d marks the D form. Side chains are listed from the residue outwards. Peptide text beside a SMILES is read from it. * marks the point of attachment. C20 diacid = O=C(O)CCCCCCCCCCCCCCCCCCC(=O)*; C18 diacid = O=C(O)CCCCCCCCCCCCCCCCC(=O)*; C16 diacid = O=C(O)CCCCCCCCCCCCCCC(=O)*; γGlu = O=C(O)[C@H](CCC(=O)[*:2])N[*:1]; Met(O2) = CS(=O)(=O)CC[C@H](N)C(=O)O; αMeF = C[C@](N)(Cc1ccccc1)C(=O)O; αMeD = C[C@](N)(CC(=O)O)C(=O)O; AEEA = NCCOCCOCC(=O)O; Aib = CC(C)(N)C(=O)O

What was measured:
[1] = target: T1, human GLP1R (Homo sapiens, UniProt P43220); experiment: cAMP activity assay at the GLP-1 receptor (GLP1R); assay type: cell-based
T1 construct: expressed in transfected cells; growth medium holds Blasticidin and Hygromycin
T1 sequence (P43220 24-463): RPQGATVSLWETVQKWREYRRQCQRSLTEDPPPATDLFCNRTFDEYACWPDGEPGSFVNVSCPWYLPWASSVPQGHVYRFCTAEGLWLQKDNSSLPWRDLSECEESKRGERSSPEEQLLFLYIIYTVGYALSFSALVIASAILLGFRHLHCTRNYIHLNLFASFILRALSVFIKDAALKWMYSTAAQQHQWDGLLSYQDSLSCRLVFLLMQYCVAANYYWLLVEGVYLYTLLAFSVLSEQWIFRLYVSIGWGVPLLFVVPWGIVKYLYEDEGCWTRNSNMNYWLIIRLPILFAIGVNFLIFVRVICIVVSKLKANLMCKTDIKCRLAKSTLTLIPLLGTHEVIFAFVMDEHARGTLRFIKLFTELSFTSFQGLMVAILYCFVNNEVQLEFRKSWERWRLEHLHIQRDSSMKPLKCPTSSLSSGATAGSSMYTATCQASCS
Method in brief: (§1)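 Peptides serially diluted from DMSO (10 points) and added to frozen-stock cells bearing human GLP1R (10,000 cells/well) or GCGR (30,000 cells/well), 1 h at RT, dark. EC50 by four-parameter logistic fit of HitHunter cAMPXS luminescence, read following overnight RT incubation.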

[2] = target: T2, human GCGR (Homo sapiens, UniProt P47871); experiment: cAMP activity assay at the Glucagon receptor (GCGR); assay type: cell-based; settings: for hGCGR/hGLP1R (hTone): ratio of GCGR EC50 to GLP1R EC50
T2 construct: expressed in transfected cells; growth medium holds Blasticidin and Hygromycin
T2 sequence (P47871 26-477): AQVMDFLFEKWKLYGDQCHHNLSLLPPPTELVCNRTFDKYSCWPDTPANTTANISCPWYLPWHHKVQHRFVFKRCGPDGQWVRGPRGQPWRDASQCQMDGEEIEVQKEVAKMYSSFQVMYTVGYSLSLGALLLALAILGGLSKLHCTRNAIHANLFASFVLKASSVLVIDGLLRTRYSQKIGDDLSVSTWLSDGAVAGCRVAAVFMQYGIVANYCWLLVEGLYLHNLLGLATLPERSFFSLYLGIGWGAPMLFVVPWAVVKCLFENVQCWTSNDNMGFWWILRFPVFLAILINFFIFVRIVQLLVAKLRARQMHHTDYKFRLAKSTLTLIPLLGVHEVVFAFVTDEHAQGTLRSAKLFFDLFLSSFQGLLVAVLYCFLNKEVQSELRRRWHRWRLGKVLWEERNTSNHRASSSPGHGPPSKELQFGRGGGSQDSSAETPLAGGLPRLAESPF
Method in brief: as §1

[3] = summary statement: EC50 at each of the glucagon and GLP-1 receptors, read-out: EC50 at the GLP-1 receptor
[4] = summary statement: EC50 at each of the glucagon and GLP-1 receptors, read-out: EC50 at the glucagon receptor
[5] = cells expressing human GLP1R, cAMP production, buffer with or without 20% human serum (not stated which), read-out: GLP1R EC50 human
[6] = cells expressing human GCGR, cAMP production, buffer with or without 20% human serum (not stated which), read-out: GCGR EC50 human

Compound	EC50 [1, 3]	hGCGR/hGLP1R (hTone) [2]	EC50 [2, 4]	EC50 [1, 5]	EC50 [2, 6]
CC(C)C[C@H](NC(=O)[C@H](Cc1ccc(O)cc1)NC(=O)[C@H](CCCCN)NC(=O)[C@H](CO)NC(=O)[C@H](Cc1ccc(O)cc1)NC(=O)[C@H](CC(=O)O)NC(=O)[C@H](CO)NC(=O)[C@@H](NC(=O)[C@H](Cc1ccccc1)NC(=O)[C@@H](NC(=O)CNC(=O)[C@H](CCC(N)=O)NC(=O)C(C)(C)NC(=O)[C@@H](N)Cc1c[nH]cn1)[C@@H](C)O)[C@@H](C)O)C(=O)N[C@@H](CC(=O)O)C(=O)N[C@@H](C)C(=O)N[C@@H](CCCNC(=N)N)C(=O)N[C@@H](C)C(=O)N[C@@H](C)C(=O)N[C@@H](CCCCNC(=O)COCCOCCNC(=O)COCCOCCNC(=O)CC[C@H](NC(=O)CCCCCCCCCCCCCCCCCCC(=O)O)C(=O)O)C(=O)N[C@@H](CC(=O)O)C(=O)N[C@@](C)(Cc1ccccc1)C(=O)N[C@H](C(=O)N[C@@H](CCC(N)=O)C(=O)N[C@@H](Cc1c[nH]c2ccccc12)C(=O)N[C@@H](CC(C)C)C(=O)N[C@@H](CCS(C)(=O)=O)C(=O)N[C@@H](CC(=O)O)C(=O)N[C@H](C(N)=O)[C@@H](C)O)C(C)C [TP590] (H-H[Aib]QGTFTSDYSKYLDARAAK([AEEA-AEEA-γGlu-C20 diacid])D[αMeF]VQWL[Met(O2)]DT-NH2)	< 5 nM	3.1	< 5 nM		
CC(C)C[C@H](NC(=O)[C@H](Cc1c[nH]c2ccccc12)NC(=O)[C@H](CCCCNC(=O)COCCOCCNC(=O)COCCOCCNC(=O)CC[C@H](NC(=O)CCCCCCCCCCCCCCC(=O)O)C(=O)O)NC(=O)[C@@H](NC(=O)[C@H](Cc1ccccc1)NC(=O)[C@H](CC(=O)O)NC(=O)[C@H](CCC(N)=O)NC(=O)[C@H](C)NC(=O)[C@H](C)NC(=O)[C@H](CCCNC(=N)N)NC(=O)C(C)(C)NC(=O)[C@H](CC(=O)O)NC(=O)[C@H](CC(C)C)NC(=O)[C@H](Cc1ccc(O)cc1)NC(=O)[C@H](CCCCN)NC(=O)[C@H](CO)NC(=O)[C@H](Cc1ccc(O)cc1)NC(=O)[C@H](CC(=O)O)NC(=O)[C@H](CO)NC(=O)[C@@H](NC(=O)[C@H](Cc1ccccc1)NC(=O)[C@@H](NC(=O)CNC(=O)[C@H](CCC(N)=O)NC(=O)C(C)(C)NC(=O)[C@@H](N)Cc1c[nH]cn1)[C@@H](C)O)[C@@H](C)O)C(C)C)C(=O)N[C@@H](CCS(C)(=O)=O)C(=O)N[C@@H](CC(=O)O)C(=O)N[C@H](C(N)=O)[C@@H](C)O [TP811] (H-H[Aib]QGTFTSDYSKYLD[Aib]RAAQDFVK([AEEA-AEEA-γGlu-C16 diacid])WL[Met(O2)]DT-NH2; N-terminus assumed)	< 5 nM	0.8	< 5 nM	0.26 nM	0.21 nM
CC(C)C[C@H](NC(=O)[C@H](Cc1ccc(O)cc1)NC(=O)[C@H](CCCCN)NC(=O)[C@H](CO)NC(=O)[C@H](Cc1ccc(O)cc1)NC(=O)[C@H](CC(=O)O)NC(=O)[C@H](CO)NC(=O)[C@@H](NC(=O)[C@H](Cc1ccccc1)NC(=O)[C@@H](NC(=O)CNC(=O)[C@H](CCC(N)=O)NC(=O)C(C)(C)NC(=O)[C@@H](N)Cc1c[nH]cn1)[C@@H](C)O)[C@@H](C)O)C(=O)N[C@@H](CC(=O)O)C(=O)N[C@@H](C)C(=O)N[C@@H](CCCNC(=N)N)C(=O)N[C@@H](C)C(=O)N[C@@H](C)C(=O)N[C@@H](CCCCNC(=O)COCCOCCNC(=O)CC[C@H](NC(=O)CCCCCCCCCCCCCCC(=O)O)C(=O)O)C(=O)N[C@@H](CC(=O)O)C(=O)N[C@@H](Cc1ccccc1)C(=O)N[C@H](C(=O)N[C@@H](CCC(N)=O)C(=O)N[C@@H](Cc1c[nH]c2ccccc12)C(=O)N[C@@H](CC(C)C)C(=O)N[C@@H](CCS(C)(=O)=O)C(=O)N[C@@](C)(CC(=O)O)C(=O)N[C@H](C(N)=O)[C@@H](C)O)C(C)C [TP627] (H-H[Aib]QGTFTSDYSKYLDARAAK([AEEA-γGlu-C16 diacid])DFVQWL[Met(O2)][αMeD]T-NH2; N-terminus assumed)	< 5 nM	0.6	< 5 nM		0.14 nM

Next, values leading:

EC50 [1, 3]	hGCGR/hGLP1R (hTone) [2]	EC50 [2, 4]	EC50 [1, 5]	EC50 [2, 6]	Compound
< 5 nM	2.0	< 5 nM			CC(C)C[C@H](NC(=O)[C@H](Cc1ccc(O)cc1)NC(=O)[C@H](CCCCN)NC(=O)[C@H](CO)NC(=O)[C@H](Cc1ccc(O)cc1)NC(=O)[C@H](CC(=O)O)NC(=O)[C@H](CO)NC(=O)[C@@H](NC(=O)[C@H](Cc1ccccc1)NC(=O)[C@@H](NC(=O)CNC(=O)[C@H](CCC(N)=O)NC(=O)C(C)(C)NC(=O)[C@@H](N)Cc1c[nH]cn1)[C@@H](C)O)[C@@H](C)O)C(=O)N[C@@H](CC(=O)O)C(=O)N[C@@H](C)C(=O)N[C@@H](CCCNC(=N)N)C(=O)N[C@@H](C)C(=O)N[C@@H](C)C(=O)N[C@@H](CCCCNC(=O)COCCOCCNC(=O)COCCOCCNC(=O)CC[C@H](NC(=O)CCCCCCCCCCCCCCC(=O)O)C(=O)O)C(=O)N[C@@H](CC(=O)O)C(=O)N[C@@H](Cc1ccccc1)C(=O)N[C@H](C(=O)N[C@@H](CCC(N)=O)C(=O)N[C@@H](Cc1c[nH]c2ccccc12)C(=O)N[C@@H](CC(C)C)C(=O)N[C@@H](CCS(C)(=O)=O)C(=O)N[C@@H](CCC(=O)O)C(=O)N[C@H](C(N)=O)[C@@H](C)O)C(C)C [TP814] (H-H[Aib]QGTFTSDYSKYLDARAAK([AEEA-AEEA-γGlu-C16 diacid])DFVQWL[Met(O2)]ET-NH2; N-terminus assumed)
< 5 nM	1.9	< 5 nM	0.76 nM		CC(C)C[C@H](NC(=O)[C@H](Cc1ccc(O)cc1)NC(=O)[C@H](CCCCN)NC(=O)[C@H](CO)NC(=O)[C@H](Cc1ccc(O)cc1)NC(=O)[C@H](CC(=O)O)NC(=O)[C@H](CO)NC(=O)[C@@H](NC(=O)[C@H](Cc1ccccc1)NC(=O)[C@@H](NC(=O)CNC(=O)[C@H](CCC(N)=O)NC(=O)C(C)(C)NC(=O)[C@@H](N)Cc1c[nH]cn1)[C@@H](C)O)[C@@H](C)O)C(=O)N[C@@H](CC(=O)O)C(=O)N[C@@H](C)C(=O)N[C@@H](CCCNC(=N)N)C(=O)N[C@@H](C)C(=O)N[C@@H](C)C(=O)N[C@@H](CCCCNC(=O)COCCOCCNC(=O)COCCOCCNC(=O)COCCOCCNC(=O)CC[C@H](NC(=O)CCCCCCCCCCCCCCCCC(=O)O)C(=O)O)C(=O)N[C@@H](CC(=O)O)C(=O)N[C@@H](Cc1ccccc1)C(=O)N[C@H](C(=O)N[C@@H](CCC(N)=O)C(=O)N[C@@H](Cc1c[nH]c2ccccc12)C(=O)N[C@@H](CC(C)C)C(=O)N[C@@H](CCS(C)(=O)=O)C(=O)N[C@@](C)(CC(=O)O)C(=O)N[C@H](C(N)=O)[C@@H](C)O)C(C)C [TP677] (H-H[Aib]QGTFTSDYSKYLDARAAK([AEEA-AEEA-AEEA-γGlu-C18 diacid])DFVQWL[Met(O2)][αMeD]T-NH2; N-terminus assumed)
< 5 nM	2.3	< 5 nM		0.2 nM	CC(C)C[C@H](NC(=O)[C@H](Cc1ccc(O)cc1)NC(=O)[C@H](CCCCN)NC(=O)[C@H](CO)NC(=O)[C@H](Cc1ccc(O)cc1)NC(=O)[C@H](CC(=O)O)NC(=O)[C@H](CO)NC(=O)[C@@H](NC(=O)[C@H](Cc1ccccc1)NC(=O)[C@@H](NC(=O)CNC(=O)[C@H](CCC(N)=O)NC(=O)C(C)(C)NC(=O)[C@@H](N)Cc1c[nH]cn1)[C@@H](C)O)[C@@H](C)O)C(=O)N[C@@H](CC(=O)O)C(=O)N[C@@H](C)C(=O)N[C@@H](CCCNC(=N)N)C(=O)N[C@@H](C)C(=O)N[C@@H](C)C(=O)N[C@@H](CCCCNC(=O)COCCOCCNC(=O)COCCOCCNC(=O)CC[C@H](NC(=O)CCCCCCCCCCCCCCC(=O)O)C(=O)O)C(=O)N[C@@H](CCC(=O)O)C(=O)N[C@@H](Cc1ccccc1)C(=O)N[C@H](C(=O)N[C@@H](CCC(N)=O)C(=O)N[C@@H](Cc1c[nH]c2ccccc12)C(=O)N[C@@H](CC(C)C)C(=O)N[C@@H](CCS(C)(=O)=O)C(=O)N[C@@H](CC(=O)O)C(=O)N[C@H](C(N)=O)[C@@H](C)O)C(C)C [TP812] (H-H[Aib]QGTFTSDYSKYLDARAAK([AEEA-AEEA-γGlu-C16 diacid])EFVQWL[Met(O2)]DT-NH2)
< 5 nM	1.4	< 5 nM		0.35 nM	CC(C)C[C@H](NC(=O)[C@H](Cc1ccc(O)cc1)NC(=O)[C@H](CCCCN)NC(=O)[C@H](CO)NC(=O)[C@H](Cc1ccc(O)cc1)NC(=O)[C@H](CC(=O)O)NC(=O)[C@H](CO)NC(=O)[C@@H](NC(=O)[C@H](Cc1ccccc1)NC(=O)[C@@H](NC(=O)CNC(=O)[C@H](CCC(N)=O)NC(=O)C(C)(C)NC(=O)[C@@H](N)Cc1c[nH]cn1)[C@@H](C)O)[C@@H](C)O)C(=O)N[C@@H](CC(=O)O)C(=O)N[C@@H](C)C(=O)N[C@@H](CCCNC(=N)N)C(=O)N[C@@H](C)C(=O)N[C@@H](C)C(=O)N[C@@H](CCC(N)=O)C(=O)N[C@@H](CCC(=O)O)C(=O)N[C@@H](Cc1ccccc1)C(=O)N[C@H](C(=O)N[C@@H](CCCCNC(=O)COCCOCCNC(=O)COCCOCCNC(=O)CC[C@H](NC(=O)CCCCCCCCCCCCCCCCC(=O)O)C(=O)O)C(=O)N[C@@H](Cc1c[nH]c2ccccc12)C(=O)N[C@@H](CC(C)C)C(=O)N[C@@H](CCS(C)(=O)=O)C(=O)N[C@@H](CC(=O)O)C(=O)N[C@H](C(N)=O)[C@@H](C)O)C(C)C [TP702] (H-H[Aib]QGTFTSDYSKYLDARAAQEFVK([AEEA-AEEA-γGlu-C18 diacid])WL[Met(O2)]DT-NH2; N-terminus assumed)
